Targets include Melanocortin receptor 4 (Homo sapiens, UniProt P32245); Vasopressin V1a receptor (Homo sapiens, UniProt P37288); D(3) dopamine receptor (Homo sapiens, UniProt P35462).
The next assay has as its target T1, B1 bradykinin receptor (Homo sapiens, UniProt P46663).
T1 sequence (P46663 whole entry): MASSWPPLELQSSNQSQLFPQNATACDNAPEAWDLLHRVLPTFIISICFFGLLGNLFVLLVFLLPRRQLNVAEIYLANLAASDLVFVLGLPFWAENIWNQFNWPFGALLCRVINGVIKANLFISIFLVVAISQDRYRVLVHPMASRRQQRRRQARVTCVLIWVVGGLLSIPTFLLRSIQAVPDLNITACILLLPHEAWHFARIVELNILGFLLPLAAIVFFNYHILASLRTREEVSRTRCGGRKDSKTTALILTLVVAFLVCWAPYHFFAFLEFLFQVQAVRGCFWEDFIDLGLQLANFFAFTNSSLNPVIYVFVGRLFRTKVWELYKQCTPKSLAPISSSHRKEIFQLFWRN

The target of the next assay is T2, Glucocorticoid receptor (Homo sapiens, UniProt P04150).
T2 sequence (P04150 whole entry): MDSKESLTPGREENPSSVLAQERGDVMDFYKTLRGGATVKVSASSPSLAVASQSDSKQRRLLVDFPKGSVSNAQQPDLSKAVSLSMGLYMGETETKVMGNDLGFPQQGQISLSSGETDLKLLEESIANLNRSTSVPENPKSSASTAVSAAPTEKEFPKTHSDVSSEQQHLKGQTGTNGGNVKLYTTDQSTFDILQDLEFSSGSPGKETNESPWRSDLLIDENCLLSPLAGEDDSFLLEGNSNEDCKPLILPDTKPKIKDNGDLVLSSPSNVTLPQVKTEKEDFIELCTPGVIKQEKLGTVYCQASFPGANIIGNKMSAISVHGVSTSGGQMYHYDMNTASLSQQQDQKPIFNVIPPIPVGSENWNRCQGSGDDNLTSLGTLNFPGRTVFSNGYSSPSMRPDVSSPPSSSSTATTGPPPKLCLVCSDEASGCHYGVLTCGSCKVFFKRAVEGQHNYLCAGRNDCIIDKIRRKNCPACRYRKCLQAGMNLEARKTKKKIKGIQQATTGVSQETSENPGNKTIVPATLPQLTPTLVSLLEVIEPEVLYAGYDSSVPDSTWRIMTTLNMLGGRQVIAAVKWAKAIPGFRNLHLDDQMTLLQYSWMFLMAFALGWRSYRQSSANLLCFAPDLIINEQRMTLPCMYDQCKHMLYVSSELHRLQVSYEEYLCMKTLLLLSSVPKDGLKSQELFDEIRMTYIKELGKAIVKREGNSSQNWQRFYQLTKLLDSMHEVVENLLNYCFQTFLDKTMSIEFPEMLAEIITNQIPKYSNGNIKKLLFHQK

Assay [1] has as its target T3, 5-hydroxytryptamine receptor 2B (Homo sapiens, UniProt P41595). The class given is functional, cell-based.
For a further assay, the target named is Prothrombin (Homo sapiens, UniProt P00734). The class given is functional.
Assay [2] addresses 3',5'-cyclic-AMP phosphodiesterase 4A (Homo sapiens, UniProt P27815). It counts as functional.
Another assay has as its target T4, Thromboxane A2 receptor (Homo sapiens, UniProt P21731).
T4 sequence (P21731 whole entry): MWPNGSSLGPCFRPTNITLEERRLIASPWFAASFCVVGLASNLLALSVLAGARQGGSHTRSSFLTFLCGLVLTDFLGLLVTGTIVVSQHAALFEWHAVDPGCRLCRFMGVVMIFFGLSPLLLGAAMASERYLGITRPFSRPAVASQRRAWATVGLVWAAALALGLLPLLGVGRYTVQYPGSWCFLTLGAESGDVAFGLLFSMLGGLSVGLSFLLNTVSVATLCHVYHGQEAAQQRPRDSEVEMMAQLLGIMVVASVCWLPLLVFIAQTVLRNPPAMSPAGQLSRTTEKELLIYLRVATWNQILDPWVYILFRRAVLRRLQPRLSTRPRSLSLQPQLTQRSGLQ
The class given is functional, cell-based.

Assay [3] concerns the target T3, 5-hydroxytryptamine receptor 2B. The class given is functional, cell-based. This is another data set of the same source.
The target of assay [4] is T5, Muscarinic acetylcholine receptor M2 (Homo sapiens, UniProt P08172).
T5 sequence (P08172 whole entry): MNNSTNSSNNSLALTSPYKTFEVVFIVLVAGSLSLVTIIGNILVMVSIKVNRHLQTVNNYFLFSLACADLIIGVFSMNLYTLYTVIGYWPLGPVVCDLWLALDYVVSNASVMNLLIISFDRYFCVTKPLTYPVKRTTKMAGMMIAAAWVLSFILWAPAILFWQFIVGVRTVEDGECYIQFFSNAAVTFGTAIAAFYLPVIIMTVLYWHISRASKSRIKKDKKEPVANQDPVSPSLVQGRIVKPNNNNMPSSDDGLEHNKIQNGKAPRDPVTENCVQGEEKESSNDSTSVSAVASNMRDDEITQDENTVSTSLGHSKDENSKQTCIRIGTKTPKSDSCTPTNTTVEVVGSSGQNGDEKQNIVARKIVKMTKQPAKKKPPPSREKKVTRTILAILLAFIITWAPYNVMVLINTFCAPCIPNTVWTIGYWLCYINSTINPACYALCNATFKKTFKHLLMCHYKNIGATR

A further assay has as its target Acetylcholinesterase (Homo sapiens, UniProt P22303). It counts as functional.
The target in assay [5] is T6, Alpha-1A adrenergic receptor (Homo sapiens, UniProt P35348).
T6 sequence (P35348 whole entry): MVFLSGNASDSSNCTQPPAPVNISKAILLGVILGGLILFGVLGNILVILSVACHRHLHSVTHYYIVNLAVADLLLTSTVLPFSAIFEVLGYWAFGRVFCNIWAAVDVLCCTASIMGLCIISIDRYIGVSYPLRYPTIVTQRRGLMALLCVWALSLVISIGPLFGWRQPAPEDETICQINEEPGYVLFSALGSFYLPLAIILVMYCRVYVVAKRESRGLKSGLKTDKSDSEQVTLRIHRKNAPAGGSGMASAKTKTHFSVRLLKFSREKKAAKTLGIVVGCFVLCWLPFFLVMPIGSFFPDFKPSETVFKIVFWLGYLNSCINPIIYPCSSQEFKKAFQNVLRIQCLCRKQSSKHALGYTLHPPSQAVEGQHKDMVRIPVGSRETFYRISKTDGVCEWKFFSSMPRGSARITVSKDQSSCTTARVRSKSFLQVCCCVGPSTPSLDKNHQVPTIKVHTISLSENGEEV
It counts as functional, cell-based.

Assay [6] deals with Prostaglandin G/H synthase 1 (Homo sapiens, UniProt P23219). It counts as functional.
Also: assay procedure not described here.

D(3) dopamine receptor, sequence (P35462 whole entry): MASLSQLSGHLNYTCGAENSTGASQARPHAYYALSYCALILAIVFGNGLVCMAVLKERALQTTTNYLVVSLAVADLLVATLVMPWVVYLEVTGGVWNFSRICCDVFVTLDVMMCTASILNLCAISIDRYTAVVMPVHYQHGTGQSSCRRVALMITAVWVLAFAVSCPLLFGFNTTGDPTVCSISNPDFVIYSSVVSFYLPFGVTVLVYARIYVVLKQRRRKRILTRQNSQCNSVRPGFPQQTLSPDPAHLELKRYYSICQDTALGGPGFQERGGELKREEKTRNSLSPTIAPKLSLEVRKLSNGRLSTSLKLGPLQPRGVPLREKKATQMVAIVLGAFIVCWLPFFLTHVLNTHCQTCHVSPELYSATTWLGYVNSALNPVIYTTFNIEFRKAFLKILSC
3',5'-cyclic-AMP phosphodiesterase 4A, sequence (P27815 whole entry): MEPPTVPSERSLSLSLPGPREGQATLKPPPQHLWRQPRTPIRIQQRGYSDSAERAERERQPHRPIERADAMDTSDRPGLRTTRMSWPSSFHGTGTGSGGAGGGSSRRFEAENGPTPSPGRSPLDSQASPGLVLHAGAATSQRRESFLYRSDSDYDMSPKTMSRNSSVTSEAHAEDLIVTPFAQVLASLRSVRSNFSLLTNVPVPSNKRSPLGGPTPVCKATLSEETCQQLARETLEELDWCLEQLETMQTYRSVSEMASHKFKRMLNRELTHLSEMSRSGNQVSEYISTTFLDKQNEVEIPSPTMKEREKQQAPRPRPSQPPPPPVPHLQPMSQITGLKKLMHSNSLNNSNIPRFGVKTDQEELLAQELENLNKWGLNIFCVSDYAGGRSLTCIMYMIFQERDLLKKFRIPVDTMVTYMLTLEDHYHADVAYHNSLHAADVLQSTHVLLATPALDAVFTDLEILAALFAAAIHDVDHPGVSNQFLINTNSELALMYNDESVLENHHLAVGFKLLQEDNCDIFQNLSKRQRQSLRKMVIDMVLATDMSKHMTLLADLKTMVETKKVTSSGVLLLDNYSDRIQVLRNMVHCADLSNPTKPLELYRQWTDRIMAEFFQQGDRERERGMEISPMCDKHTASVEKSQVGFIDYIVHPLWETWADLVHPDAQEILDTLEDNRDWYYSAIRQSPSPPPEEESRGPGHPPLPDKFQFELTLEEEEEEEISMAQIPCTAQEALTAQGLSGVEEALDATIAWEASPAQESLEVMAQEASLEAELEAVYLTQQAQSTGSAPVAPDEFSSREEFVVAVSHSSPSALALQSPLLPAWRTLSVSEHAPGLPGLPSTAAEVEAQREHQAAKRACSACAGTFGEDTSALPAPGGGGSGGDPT
Vasopressin V1a receptor, sequence (P37288 whole entry): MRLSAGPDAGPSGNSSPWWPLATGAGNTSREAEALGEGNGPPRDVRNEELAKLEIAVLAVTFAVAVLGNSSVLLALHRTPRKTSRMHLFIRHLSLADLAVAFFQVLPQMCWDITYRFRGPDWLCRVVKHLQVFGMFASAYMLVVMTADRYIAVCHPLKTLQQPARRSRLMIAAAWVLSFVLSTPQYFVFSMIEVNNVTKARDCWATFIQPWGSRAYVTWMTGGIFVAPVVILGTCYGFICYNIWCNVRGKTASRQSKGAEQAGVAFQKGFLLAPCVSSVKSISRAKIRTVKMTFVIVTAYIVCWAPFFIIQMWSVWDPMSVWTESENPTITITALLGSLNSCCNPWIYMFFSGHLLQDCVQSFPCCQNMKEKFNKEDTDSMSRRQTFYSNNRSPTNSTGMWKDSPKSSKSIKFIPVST
Acetylcholinesterase, sequence (P22303 whole entry): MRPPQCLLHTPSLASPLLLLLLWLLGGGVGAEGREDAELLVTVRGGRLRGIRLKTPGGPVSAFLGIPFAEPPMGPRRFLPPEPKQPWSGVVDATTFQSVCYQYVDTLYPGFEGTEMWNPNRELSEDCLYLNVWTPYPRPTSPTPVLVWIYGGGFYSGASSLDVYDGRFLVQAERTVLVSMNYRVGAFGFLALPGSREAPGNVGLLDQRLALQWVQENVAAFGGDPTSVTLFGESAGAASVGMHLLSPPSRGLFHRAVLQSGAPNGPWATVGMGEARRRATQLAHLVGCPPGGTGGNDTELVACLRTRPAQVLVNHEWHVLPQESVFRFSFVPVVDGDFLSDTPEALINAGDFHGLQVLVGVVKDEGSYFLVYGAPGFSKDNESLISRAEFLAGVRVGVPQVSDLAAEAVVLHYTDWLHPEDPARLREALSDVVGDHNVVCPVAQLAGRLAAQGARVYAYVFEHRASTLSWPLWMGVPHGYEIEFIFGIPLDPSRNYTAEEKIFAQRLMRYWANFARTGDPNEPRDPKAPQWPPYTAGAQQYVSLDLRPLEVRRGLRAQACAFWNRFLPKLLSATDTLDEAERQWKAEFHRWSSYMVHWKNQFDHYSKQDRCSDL
T3 sequence (P41595 whole entry): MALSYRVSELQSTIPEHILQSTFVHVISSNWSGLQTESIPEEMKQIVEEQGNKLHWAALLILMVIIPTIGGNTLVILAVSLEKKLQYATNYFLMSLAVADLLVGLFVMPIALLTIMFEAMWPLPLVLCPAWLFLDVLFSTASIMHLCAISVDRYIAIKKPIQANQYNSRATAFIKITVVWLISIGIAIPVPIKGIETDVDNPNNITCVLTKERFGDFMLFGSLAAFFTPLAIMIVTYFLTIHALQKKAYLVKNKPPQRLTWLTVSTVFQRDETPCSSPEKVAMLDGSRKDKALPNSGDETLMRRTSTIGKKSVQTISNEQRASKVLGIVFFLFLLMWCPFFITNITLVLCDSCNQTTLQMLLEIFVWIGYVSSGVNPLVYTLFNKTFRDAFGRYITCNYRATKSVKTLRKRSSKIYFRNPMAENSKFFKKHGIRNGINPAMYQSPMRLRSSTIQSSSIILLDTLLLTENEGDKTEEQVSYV
Melanocortin receptor 4, sequence (P32245 whole entry): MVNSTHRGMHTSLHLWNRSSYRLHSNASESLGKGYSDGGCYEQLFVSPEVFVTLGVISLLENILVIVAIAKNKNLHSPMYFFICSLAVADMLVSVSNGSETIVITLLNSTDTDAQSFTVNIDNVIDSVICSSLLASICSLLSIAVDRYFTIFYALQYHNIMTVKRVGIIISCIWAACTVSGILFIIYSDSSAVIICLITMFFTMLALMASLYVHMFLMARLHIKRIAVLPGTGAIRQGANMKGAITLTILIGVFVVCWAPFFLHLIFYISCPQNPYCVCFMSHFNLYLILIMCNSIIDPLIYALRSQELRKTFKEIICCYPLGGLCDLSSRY
Prostaglandin G/H synthase 1, sequence (P23219 whole entry): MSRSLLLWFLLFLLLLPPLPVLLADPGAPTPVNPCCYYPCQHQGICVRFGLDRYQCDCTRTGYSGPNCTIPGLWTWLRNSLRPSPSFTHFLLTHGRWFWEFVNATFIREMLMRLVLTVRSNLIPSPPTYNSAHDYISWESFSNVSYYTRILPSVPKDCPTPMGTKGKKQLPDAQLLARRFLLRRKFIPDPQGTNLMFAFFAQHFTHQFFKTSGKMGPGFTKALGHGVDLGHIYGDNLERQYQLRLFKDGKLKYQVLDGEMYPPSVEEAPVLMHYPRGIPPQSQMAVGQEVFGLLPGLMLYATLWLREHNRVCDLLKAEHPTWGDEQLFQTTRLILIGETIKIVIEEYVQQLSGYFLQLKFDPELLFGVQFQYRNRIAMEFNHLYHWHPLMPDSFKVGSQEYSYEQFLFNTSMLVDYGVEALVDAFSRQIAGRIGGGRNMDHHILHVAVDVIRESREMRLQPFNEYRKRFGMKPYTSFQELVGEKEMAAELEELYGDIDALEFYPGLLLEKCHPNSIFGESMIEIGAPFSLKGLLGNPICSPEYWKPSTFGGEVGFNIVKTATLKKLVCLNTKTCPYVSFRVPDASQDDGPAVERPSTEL

For the compound `CC(C)COCC(CN(Cc1ccccc1)c1ccccc1)N1CCCC1` (configuration not stated) [BEPRIDIL], the AC50 (in general, the midpoint of the concentration-response curve, whichever way the signal moves) at B1 bradykinin receptor was over 30 µM; on Melanocortin receptor 4, 15.4 µM; on Glucocorticoid receptor, over 30 µM; in [1], over 30 µM; on Vasopressin V1a receptor, over 30 µM.
In the case of `O=C(O)c1cn(C2CC2)c2cc(N3CCNCC3)c(F)cc2c1=O` [CIPROFLOXACIN], the AC50 (on Prothrombin; in [2]; at B1 bradykinin receptor; on Thromboxane A2 receptor; at Melanocortin receptor 4; at Glucocorticoid receptor) was over 30 µM each time. Moreover, the AC50 on Vasopressin V1a receptor was over 10 µM.
With `CC(CCc1ccc(O)cc1)NCCc1ccc(O)c(O)c1` (configuration not stated) [DOBUTAMINE], the AC50 (at B1 bradykinin receptor; on Melanocortin receptor 4; on Glucocorticoid receptor; in assay [1]; on Vasopressin V1a receptor) was over 30 µM each time.
In the case of `CC(C(=O)O)c1ccc(-c2ccccc2)c(F)c1` (configuration not stated) [FLURBIPROFEN], the AC50 (at Prothrombin; in assay [2]; in assay [3]; in assay [4]; on Acetylcholinesterase; on Thromboxane A2 receptor) was over 30 µM each time. Moreover, the AC50 at Melanocortin receptor 4 was over 10 µM; on D(3) dopamine receptor, over 30 µM; on Glucocorticoid receptor, over 30 µM; in assay [1] it was over 10 µM; at Vasopressin V1a receptor it was over 10 µM.
As to `CCC(=O)O[C@]1(C(=O)SCF)[C@H](C)C[C@H]2[C@@H]3C[C@H](F)C4=CC(=O)C=C[C@]4(C)[C@@]3(F)[C@@H](O)C[C@@]21C` [FLUTICASONE PROPIONATE], the AC50 (at Prothrombin; in [2]; in assay [3]; in [4]; on B1 bradykinin receptor; on Acetylcholinesterase) was over 30 µM in each case. Moreover, the AC50 (at Thromboxane A2 receptor; at Melanocortin receptor 4; in assay [5]; at D(3) dopamine receptor; in assay [1]; in [6]) was over 30 µM throughout. The same compound had an AC50 at Vasopressin V1a receptor of over 30 µM.
In the case of `Cc1cnc(C(=O)NCCc2ccc(S(=O)(=O)NC(=O)NC3CCCCC3)cc2)cn1` [GLIPIZIDE], the AC50 (on Prothrombin; in assay [2]; at B1 bradykinin receptor; on Thromboxane A2 receptor; on Melanocortin receptor 4; at Glucocorticoid receptor) was over 30 µM throughout. The compound also yielded an AC50 on Vasopressin V1a receptor of over 10 µM.
Turning to `CC(C)NCC(O)c1ccc(O)c(O)c1` (configuration not stated) [ISOPROTERENOL], the AC50 on B1 bradykinin receptor is over 30 µM; at Melanocortin receptor 4 it was over 30 µM; at Glucocorticoid receptor, over 30 µM; in assay [1], over 10 µM; on Vasopressin V1a receptor it was over 10 µM.
Consider `CN1CCN(C2=Nc3ccccc3Oc3ccc(Cl)cc32)CC1` [LOXAPINE], for which the half-maximal activity concentration (AC50) (on Prothrombin; in assay [2]; on B1 bradykinin receptor; on Acetylcholinesterase; at Thromboxane A2 receptor; at Melanocortin receptor 4) was over 30 µM throughout. The AC50 in assay [5] was 0.44 µM; on D(3) dopamine receptor, 0.019 µM; at Glucocorticoid receptor it was over 30 µM; in assay [6] it was over 30 µM; on Vasopressin V1a receptor, over 10 µM.
For the compound `OC1(c2ccc(Cl)cc2)c2ccccc2C2=NCCN21` (configuration not stated) [MAZINDOL], the AC50 (at B1 bradykinin receptor; at Melanocortin receptor 4; in assay [5]; on Glucocorticoid receptor; in assay [1]; at Vasopressin V1a receptor) was over 30 µM throughout.
Regarding `CC12CC3CC(C)(C1)CC(N)(C3)C2` [MEMANTINE], the AC50 on B1 bradykinin receptor is over 30 µM; at Melanocortin receptor 4 it was over 30 µM; in assay [5], over 30 µM; at Glucocorticoid receptor it was over 30 µM; in assay [1], over 10 µM; on Vasopressin V1a receptor it was over 30 µM.
Take `CCOC(=O)C1=C(C)NC(C)=C(C(=O)OC)C1c1cccc([N+](=O)[O-])c1` (configuration not stated) [NITRENDIPINE]: the concentration at half-maximal activity (AC50) is over 30 µM on B1 bradykinin receptor; over 30 µM on Melanocortin receptor 4; over 30 µM in assay [5]; over 10 µM in assay [1]; over 30 µM on Vasopressin V1a receptor.
Turning to `[H]/N=C(/N)N/C(=N/[H])NCCc1ccccc1` [PHENFORMIN], the half-maximal activity concentration (AC50) (on B1 bradykinin receptor; at Melanocortin receptor 4; on Glucocorticoid receptor; in assay [1]; on Vasopressin V1a receptor) was over 30 µM throughout.
Take `CC(N)C(O)c1ccccc1` (configuration not stated) [PHENYLPROPANOLAMINE]: the AC50 at B1 bradykinin receptor is over 30 µM; on Melanocortin receptor 4 it was over 30 µM; in assay [5], over 30 µM; on Glucocorticoid receptor, over 30 µM; in [1], over 10 µM; at Vasopressin V1a receptor, over 30 µM.
